What is called IC50 is the midpoint of a concentration-inhibition curve.

10 compounds from patent publication US8304434B2, “Substituted aryl sulfone derivatives as calcium channel blockers” (Merck Sharp & Dohme Corp., priority 2007, dated 2012) can be followed below.

Each structure is given as a SMILES string.

T1 sequence (Q00975 whole entry): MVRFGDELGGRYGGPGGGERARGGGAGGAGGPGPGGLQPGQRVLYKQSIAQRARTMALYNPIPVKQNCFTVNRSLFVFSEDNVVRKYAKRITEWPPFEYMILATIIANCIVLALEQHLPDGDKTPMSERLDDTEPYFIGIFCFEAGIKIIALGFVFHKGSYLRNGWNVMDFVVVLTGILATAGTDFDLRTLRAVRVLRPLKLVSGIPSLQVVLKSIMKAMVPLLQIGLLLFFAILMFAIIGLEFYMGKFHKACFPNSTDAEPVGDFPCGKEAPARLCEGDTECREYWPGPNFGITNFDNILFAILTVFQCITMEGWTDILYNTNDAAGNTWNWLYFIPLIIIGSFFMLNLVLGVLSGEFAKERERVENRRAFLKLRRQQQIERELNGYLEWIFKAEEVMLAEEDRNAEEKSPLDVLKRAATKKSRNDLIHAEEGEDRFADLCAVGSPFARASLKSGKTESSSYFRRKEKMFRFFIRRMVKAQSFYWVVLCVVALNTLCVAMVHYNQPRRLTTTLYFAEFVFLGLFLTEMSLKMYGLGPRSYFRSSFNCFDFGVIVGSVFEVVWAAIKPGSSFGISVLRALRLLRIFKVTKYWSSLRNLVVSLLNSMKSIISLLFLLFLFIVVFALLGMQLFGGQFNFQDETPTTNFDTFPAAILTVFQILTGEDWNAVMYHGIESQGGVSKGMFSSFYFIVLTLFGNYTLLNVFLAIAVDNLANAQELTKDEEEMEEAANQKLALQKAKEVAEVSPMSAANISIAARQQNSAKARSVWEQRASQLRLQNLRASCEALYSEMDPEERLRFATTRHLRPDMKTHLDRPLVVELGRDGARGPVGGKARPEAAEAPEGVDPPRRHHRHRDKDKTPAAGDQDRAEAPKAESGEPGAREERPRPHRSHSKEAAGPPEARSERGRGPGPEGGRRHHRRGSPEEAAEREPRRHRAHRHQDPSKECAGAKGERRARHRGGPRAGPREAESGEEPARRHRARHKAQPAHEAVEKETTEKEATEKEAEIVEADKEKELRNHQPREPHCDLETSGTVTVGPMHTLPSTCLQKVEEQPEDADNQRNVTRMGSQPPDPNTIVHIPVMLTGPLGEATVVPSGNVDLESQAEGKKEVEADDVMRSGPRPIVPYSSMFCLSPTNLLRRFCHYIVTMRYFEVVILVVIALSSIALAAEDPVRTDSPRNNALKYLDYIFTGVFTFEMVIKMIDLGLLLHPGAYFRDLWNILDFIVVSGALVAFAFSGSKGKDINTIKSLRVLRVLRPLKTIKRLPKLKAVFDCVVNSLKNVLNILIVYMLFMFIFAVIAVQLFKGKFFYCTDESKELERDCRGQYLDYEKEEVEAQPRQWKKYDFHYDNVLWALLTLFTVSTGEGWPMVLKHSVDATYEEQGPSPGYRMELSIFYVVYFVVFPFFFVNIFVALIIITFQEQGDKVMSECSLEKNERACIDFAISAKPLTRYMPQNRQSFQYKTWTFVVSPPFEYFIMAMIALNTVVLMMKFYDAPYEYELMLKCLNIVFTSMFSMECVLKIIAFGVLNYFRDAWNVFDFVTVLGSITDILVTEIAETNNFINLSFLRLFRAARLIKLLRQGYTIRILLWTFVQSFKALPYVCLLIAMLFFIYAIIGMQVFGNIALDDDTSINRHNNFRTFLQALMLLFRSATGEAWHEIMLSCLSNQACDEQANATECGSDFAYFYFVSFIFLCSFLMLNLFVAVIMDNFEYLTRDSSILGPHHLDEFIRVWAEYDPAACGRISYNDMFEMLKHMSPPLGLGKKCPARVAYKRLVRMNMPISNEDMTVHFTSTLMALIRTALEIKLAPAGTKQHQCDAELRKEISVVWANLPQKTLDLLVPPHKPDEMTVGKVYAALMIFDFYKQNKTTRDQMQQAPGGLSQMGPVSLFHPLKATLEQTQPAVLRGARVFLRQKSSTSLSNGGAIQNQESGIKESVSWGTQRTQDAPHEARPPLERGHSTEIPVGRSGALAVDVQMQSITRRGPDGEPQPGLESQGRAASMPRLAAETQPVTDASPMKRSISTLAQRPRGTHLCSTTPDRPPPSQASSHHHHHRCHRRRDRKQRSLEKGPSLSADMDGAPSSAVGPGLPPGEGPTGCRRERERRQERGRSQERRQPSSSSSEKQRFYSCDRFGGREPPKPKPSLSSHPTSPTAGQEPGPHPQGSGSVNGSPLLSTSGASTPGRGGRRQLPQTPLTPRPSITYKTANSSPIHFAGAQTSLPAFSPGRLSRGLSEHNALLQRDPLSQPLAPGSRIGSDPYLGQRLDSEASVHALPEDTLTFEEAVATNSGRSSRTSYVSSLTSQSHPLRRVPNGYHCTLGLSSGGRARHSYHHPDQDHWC

This experiment addresses T1, Human Cav2.2 channels (Homo sapiens, UniProt Q00975).
T1 construct: expressed in transfected cells; also expresses Kir2.3)
In words: Fluorescent assay for Cav2.2 channels using potassium depolarization to initiate channel opening (Assay Example 1). The experiment is classed as cell-based. The conditions noted are these: Assay Example 1, HEK293 cells expressing human Cav2.2; pre-incubation potassium concentration not stated. The source says: Human Cav2.2 channels were stably expressed in HEK293 cells along with alpha2-delta and beta subunits of voltage-gated calcium channels. An inwardly rectifying potassium channel (Kir2.3) was also expressed in these cells to allow more precise control of the cell membrane potential by extracellular potassium concentration. At low bath potassium concentration, the membrane potential is relatively negative, and is depolarized as the bath potassium concentration is raised. In this way, the bath potassium concentration can be used to regulate the voltage-dependent conformations of the channels. Compounds are incubated with cells in the presence of low (4 mM) potassium or elevated (12, 25 or 30 mM) potassium to determine the affinity for compound block of resting (closed) channels at 4 mM potassium or affinity for block of open and inactivated channels at 12, 25 or 30 mM potassium. After the incubation period, Cav2.2 channel opening is triggered by addition of higher concentration of potassium (70 mM final concentration) to further depolarize the cell. The degree of state-dependent block can be estimated from the inhibitory potency of compounds after incubation in different potassium concentrations.
Calcium influx through Cav2.2 channels is determined using a calcium-sensitive fluorescent dye in combination with a fluorescent plate reader. Fluorescent changes were measured with either a VIPR (Aurora Instruments) or FLIPR (Molecular Devices) plate reader.
• 1. Seed cells in Poly-D-Lysine Coated 96- or 384-well plate and keep in a 37° C.-10% CO2 incubator overnight • 2. Remove media^1, wash cells with 0.2 ml (96-well plate) or 0.05 ml (384-well plate) Dulbecco's Phosphate Buffered Saline (D-PBS) with calcium & magnesium (Invitrogen; 14040) • 3. Add 0.1 ml (96-well plate) or 0.05 ml (384-well plate) of 4 μM fluo-4 (Molecular Probes; F-14202) and 0.02% Pluronic acid (Molecular Probes; P-3000) prepared in D-PBS with calcium & magnesium (Invitrogen; 14040) supplemented with 10 mM Glucose & 10 mM Hepes/NaOH; pH 7.4 • 4. Incubate in the dark at 25° C. for 60-70 min • 5. Remove dye^2, wash cells with 0.1 ml (96-well plate) or 0.06 ml (384-well plate) of 4, 12, 25, or 30 mM Potassium Pre-polarization Buffer. (PPB) • 6. Add 0.1 ml (96-well plate) or 0.03 ml (384-well plate) of 4, 12, 25, 30 mM PPB, with or without test compound • 7. Incubate in the dark at 25° C. for 30 min • 8. Read cell plate on VIPR instrument, Excitation=480 nm, Emission=535 nm • 9. With VIPR continuously reading, add 0.1 ml (96-well plate) or 0.03 ml (384-well plate) of Depolarization Buffer, which is 2× the final assay concentration, to the cell plate.
As for `CC(C)(C1CCN(C(=O)c2cccc3nccnc23)CC1)S(=O)(=O)c1cccc(C(F)(F)F)c1`, the 50% inhibitory concentration (IC50) turned out to be 1400 nM. `CC(C)(C1CCN(C(=O)c2c[nH]c(-c3ccccc3)n2)CC1)S(=O)(=O)c1cccc(C(F)(F)F)c1`: the IC50 turned out to be 1390 nM.

For the compound `CC(C)(C1CCN(C(=O)[C@@H](N)Cc2ccccc2)CC1)S(=O)(=O)c1cccc(C(F)(F)F)c1`, the half-maximal inhibitory concentration (IC50) worked out at 490 nM. Then `CC(C)(C1CCN(C(=O)c2nc3ccc(F)cc3[nH]2)CC1)S(=O)(=O)c1cccc(C(F)(F)F)c1`, with 790 nM; and `CC(C)(C1CCN(C(=O)c2ccc(C(F)(F)F)cc2S(C)(=O)=O)CC1)S(=O)(=O)c1cccc(C(F)(F)F)c1`, with 150 nM; and `CC(C)(C)c1ccc(C(=O)N2CCC(C(C)(C)S(=O)(=O)c3cccc(C(F)(F)F)c3)CC2)cc1`, with 490 nM. Then `CC(C)(C1CCN(C(=O)C[C@@H](NS(C)(=O)=O)c2ccccc2)CC1)S(=O)(=O)c1cccc(C(F)(F)F)c1`, with 360 nM; and `CC(C)(C1CCN(C(=O)[C@H](O)Cc2ccccc2)CC1)S(=O)(=O)c1cccc(C(F)(F)F)c1`, with 510 nM. `CC(C)(C1CCN(C(=O)C2(N)CCC2)CC1)S(=O)(=O)c1cccc(C(F)(F)F)c1`: the IC50 is 1170 nM.

As to `CC(C)(C1CCN(C(=O)c2cccc(F)c2)CC1)S(=O)(=O)c1cccc(C(F)(F)F)c1`, the IC50 stood at 830 nM.
